{"source": "patent US20130310436A1", "about": "“METHODS FOR PREDICTING RESPONSE TO BETA-BLOCKER THERAPY IN NON-ISCHEMIC HEART FAILURE PATIENTS” (The Regents of the University of Colorado, a body corporate, priority 2012, published 2013)", "assay_type_in_all_cases": "in vivo, human", "key": {"[1]": {"test_system": "patients with non-ischemic HFREF", "assay": "BEST trial retrospective analysis: cumulative all-cause mortality, bucindolol vs placebo, by latent class subtype", "from_the_text": "(§1) Methods: A total of 1121 patients with non-ischemic HFREF from the β-blocker Evaluation of Survival Trial were categorized according to 27 clinical features. See Tables 1 and 2 for the clinical features or information used. Latent class analysis was used to generate two latent class models, LCM A and B, Tables 3 and 4, respectively, to identify HFREF subtypes. LCM A consisted of features associated with HF pathogenesis, whereas LCM B consisted of markers of HF progression and severity. The Seattle Heart Failure Model (SHFM) Score was also calculated for all patients. Mortality, improvement in left ventricular ejection fraction (LVEF) defined as an increase in LVEF ≧5% and a final LVEF of […] after 12 months, and effect of bucindolol on both outcomes were compared across HFREF subtypes. Performance of models that included a combination of LCM subtypes and SHFM scores towards predicting mortality and LVEF response was estimated and subsequently validated using leave-one-out cross-validation and data from the Multicenter Oral Carvedilol Heart Failure Assessment (MOCHA) Trial.\n(§2) Methods: All patients had New York Heart Association (NYHA) class III or IV HFREF (LVEF ≦35%) and were randomized in a double-blind fashion to either bucindolol (a β-blocker) or placebo. Patients were considered ischemic if they had ≧70% obstruction in a major epicardial coronary artery by angiography or evidence of prior myocardial infarction and excluded from this analysis. The primary endpoint was cumulative all-cause mortality. Secondary endpoints were all-cause mortality at one year and LVEF response defined as improvement in LVEF ≧5% with a final LVEF of ≧35% as measured using multi-gated acquisition scan (MUGA). […] They were randomized to placebo, low (6.25 mg bid), medium (12.5 mg bid), or high-dose (25 mg bid) carvedilol. Death and LVEF improvement as measured by MUGA were secondary endpoints in the original MOCHA analysis. Mortality data was only available up to one year of follow-up in MOCHA.\n(§3) Association between latent class models and outcomes: Cox proportional-hazards models and the log-rank test were used to examine the associations between latent classes and cumulative all-cause mortality according to the intention-to-treat principle. These models were fit using the coxph and survfit functions from the survival library in the R statistical package. Logistic regression models were used for the one-year mortality and LVEF response outcomes. Interactions between latent classes and the treatment groups were used to estimate the response to treatment within each subtype."}, "[2]": {"test_system": "patients with non-ischemic HFREF", "assay": "BEST trial retrospective analysis: LVEF response (improvement in LVEF ≧5% with final LVEF ≧35%, MUGA), bucindolol vs placebo, by latent class subtype", "from_the_text": "as §1, §2, §3"}, "[3]": {"test_system": "patients with non-ischemic HFREF", "assay": "BEST trial retrospective analysis: all-cause mortality at one year, bucindolol vs placebo, by latent class subtype", "from_the_text": "as §1\nas §2, with “MOCHA. […]” for “MOCHA.”"}}, "data": [{"smiles": "CC(C)(Cc1c[nH]c2ccccc12)NCC(O)COc1ccccc1C#N", "note": "(stereo not shown) [bucindolol]", "values": [{"measurement": "reduction in cumulative all-cause mortality associated with bucindolol", "setting": "[1]; LCM A subtype A1", "value": "no reduction"}, {"measurement": "reduction in mortality with bucindolol", "setting": "[1]; LCM A subtype A2 (discussion)", "value": "no significant reduction"}, {"measurement": "all-cause mortality with bucindolol", "setting": "[1]; LCM A subtype A6, only LCM A subtype (discussion)", "value": "decrease"}, {"measurement": "absolute risk reduction, cumulative all-cause mortality", "setting": "[1]; LCM A subtype A6, p=0.01", "value": 10.2, "unit": "%"}, {"measurement": "relative risk reduction, cumulative all-cause mortality", "setting": "[1]; LCM A subtype A6, p=0.01", "value": 42, "unit": "%"}, {"measurement": "improvement in mortality associated with bucindolol", "setting": "[1]; LCM B subtype B2, p=0.01", "value": "significant improvement"}, {"measurement": "overall effect of bucindolol", "setting": "[1]; all non-ischemic BEST patients (discussion)", "value": "not significant"}, {"measurement": "patients in the bucindolol group died (cumulative all-cause mortality)", "setting": "[1]; all non-ischemic BEST patients, 131/558", "value": 23.5, "unit": "%"}, {"measurement": "HR, cumulative all-cause mortality, bucindolol vs placebo", "setting": "[1]; all non-ischemic BEST patients, 95% CI 0.65-1.04, p=0.1", "value": 0.82}, {"measurement": "likelihood of LVEF response with bucindolol", "setting": "[2]; LCM A subtype A1", "value": "no effect"}, {"measurement": "likelihood of LVEF response with bucindolol", "setting": "[2]; LCM A subtype A2", "value": "significant increase"}, {"measurement": "absolute increase in likelihood of LVEF response", "setting": "[2]; LCM A subtype A3", "value": 24.3, "unit": "%"}, {"measurement": "likelihood of LVEF response with bucindolol", "setting": "[2]; LCM A subtype A3", "value": "significant increase"}, {"measurement": "relative increase in likelihood of LVEF response", "setting": "[2]; LCM A subtype A3", "value": 156, "unit": "%"}, {"measurement": "likelihood of LVEF response with bucindolol", "setting": "[2]; LCM A subtype A5", "value": "significant increase"}, {"measurement": "likelihood of LVEF response with bucindolol", "setting": "[2]; LCM A subtype A6", "value": "significant increase"}, {"measurement": "likelihood of improvement in LVEF", "setting": "[2]; LCM B subtype B1", "value": "reached statistical significance"}, {"measurement": "likelihood of improvement in LVEF", "setting": "[2]; LCM B subtype B2", "value": "reached statistical significance"}, {"measurement": "likelihood of improvement in LVEF", "setting": "[2]; all LCM B subtypes, relative and absolute terms", "value": "increased comparably"}, {"measurement": "effect of bucindolol on one-year mortality", "setting": "[3]; LCM A subtype A3, at 12 months, disappeared at subsequent follow-up", "value": "marginally significant difference"}, {"measurement": "effect of bucindolol on one-year mortality", "setting": "[3]; LCM A subtype A6, did not reach statistical significance", "value": "trended towards benefit"}, {"measurement": "effect of bucindolol on one-year mortality", "setting": "[3]; LCM B subtype B2, did not reach statistical significance", "value": "trended towards benefit"}]}]}
